Patent EP0062018A1, “Novel phenyl-piperidines” (priority 1981, dated 1982)
Counter-ions that a name gives are not always drawn. Like-named read-outs stand apart in the source and are kept apart here.

What was measured:
rabbit right atria = assay: Chronotropic effect (heart frequency) in isolated spontaneously beating right atria; type: cell-based; conditions: for Emax / EC50: Oryctolagus cuniculus, rabbit right atria, heart rate; for Emax: read-out: HR ISA; for EC50: cumulative concentrations, Krebs-buffer pH 7.4, 32°C, read-out: HR EC50; for positive chronotropic effect: result in words, isolated rabbit right atria
Experimental: (§1) Pharmacological studies on cardiac effects on heart frequency and contractility in isolated right atria and papillary muscle from rabbit. Rabbits with an average weight of 2.5 kg were killed by a blow and the hearts were rapidly removed. The right atria and a papillary muscle from the right ventricle were isolated and set up to contract isometrically in an organ bath. The bath contained 50 ml Krebs-buffer (pH 7.4) and the temperature was kept at 32°C. The contractions were measured by means of a force displacement transducer (Grass Model FT03) coupled to a Grass Model 7 Polygraph with a […] (Grass Model 7PIF). The spontaneously beating right atria was stretched to a resting tension high enough to measure the contractions and to trigger a tachograph for registration of the frequency. The papillary muscle was stretched to the length at which maximal tension was developed and was driven at a frequency of 1 Hz by a current 20 per cent above treshold and with a duration of 5 msec. After 60 min. equilibration, dose response curves to cumulative concentrations of isoprenaline were constructed for chronotropic effect, i.e. increase in frequency (atria) and positive inotropic effect, i.e. increase in contractility (papillary muscle). After wash-out similar curves were constructed for the compounds according to the invention. The positive inotropic agent dopamine was included for comparison. In order to establish the maximal chronotropic and inotropic responses of the preparations, isoprenaline was added immediately after the maximal concentrations of the compounds. The maximal effects of the compounds compared with the maximal effect of isoprenaline are expressed as intrinsic activity (ISA).

[1] = tested on: rabbit right ventricle papillary muscle; assay: Positive inotropic effect (contractility) in isolated electrically driven papillary muscle; type: cell-based; conditions: Oryctolagus cuniculus; for Emax: papillary muscle, read-out: Tmax ISA; for EC50: rabbit right ventricle papillary muscle, read-out: Tmax EC50
Experimental: as §1

[2] = intrinsic activity: maximal effect compared with maximal effect of isoprenaline
[3] = driven at 1 Hz, Krebs-buffer pH 7.4, 32°C
[4] = Tested after β-blockade, intrinsic activity vs isoprenaline

Compound | Emax (rabbit right atria; [2]) [%] | EC50 (rabbit right atria) [µM] | positive chronotropic effect (rabbit right atria) | Emax [1, 2] [%] | EC50 [1, 3] [µM] | Emax (rabbit right atria; [4]) [%] | Emax [1, 4] [%] | EC50 ([1]; Tested after β-blockade) [µM]
NCCc1ccc(O)c(O)c1 [Dopamine, reference compound] | 91 | 14.2 | marked positive chronotropic effect in doses which caused positive inotropy | 78 | 19.7 |  |  | 
CCCN1CCCC(c2cc(O)cc(O)c2)C1 (centres unmarked) [Example 1, 3=(3,5=Dihydroxyehenyl)N-n-eroeyleiperidine hydrobromide] | 0 |  | no positive chronotropic effect | 30 | 107 |  |  | 
CCN1CCCC(c2cc(O)cc(O)c2)C1 (centres unmarked) [Example 2, 3-(3,5-Dihydroxyehenyl)-N-ethylpiperidine hydrobromide] | 0 |  |  | 32 | 298 |  |  | 
CN1CCCC(c2cc(O)cc(O)c2)C1 (centres unmarked) [Example 3, 3-(3,5-Dihydroxyphenl)-N-methlpiperidine] | 0 |  |  | 37 | 11 |  |  | 
CCCCN1CCCC(c2cc(O)cc(O)c2)C1 (centres unmarked) [Example 5] |  |  |  |  |  | 0 | 42 | 18.4
CCCCCN1CCCC(c2cc(O)cc(O)c2)C1 (centres unmarked) [Example 6] | 0 |  |  | 43 | 0.24 |  |  | 
CC(C)N1CCCC(c2cc(O)cc(O)c2)C1 (centres unmarked) [Example 7] |  |  |  |  |  | 0 | 26 | 43
CC(C)NCC(O)c1ccc(O)c(O)c1 (centres unmarked) [Isoprenaline, reference compound] | 100 | 0.003 | marked positive chronotropy in doses significantly lower than those producing positive inotropy | 100 | 0.01 |  |  | 
